In patent publication US20110124715A1, “Antiviral Oligonucleotides Having a Conserved G4 Core Sequence” (priority 1992, published 2011):
Where “and” joins values, the source holds several entries; their conditions need not be identical. Equal entries are not always repeated. Where two headings read alike, the source gives them in different places.

Assays:
[1] = tested on: human T-lymphoblastoid CEM cell line
[2] = tested on: human cytomegalovirus (HCMV); assay type: cell-based
HSV-1 (KOS) [3] = experiment: HSV-1 infection ELISA assay; assay type: cell-based, herpes simplex virus; details: Table 1; 50% inhibition of HSV replication relative to control infected cells
HIV-1IIIB = experiment: Acute HIV infection assay (XTT, CEM cells); details: Table 3
HSV-1 (KOS) [4] = experiment: HSV-1 virus yield assay; assay type: cell-based, herpes simplex virus; set-up: dose or concentration left out as unconfirmed; details: compared with Acyclovir
[5] = tested on: chronically infected (H9 IIIB) cell models; experiment: Chronically infected cell models; assay type: cell-based, human immunodeficiency virus; details: data not shown
human CD44 = target: T1, human CD44 (Homo sapiens, UniProt P16070); experiment: Immunofluorescent flow cytometry, anti-CD44 mAb; assay type: cell-based
T1 construct: endogenous in cells; host or cells: HeLa cells harboring an HIV-1 env gene

V3 loop region of gp120 = V3 loop region of gp120 (Human immunodeficiency virus type 1 group M subtype B, UniProt P03375)
HIV-1 [6] = tested on: HIV-1
HIV = assay type: cell-based; details: data not shown
HIV-1 [7] = details: read-out: concentration reducing virus production to 50% of control; tetramer form; infection after 48 hours; data not shown
CD4 = CD4 (Homo sapiens, UniProt P01730); experiment: Immunofluorescent flow cytometry, anti-CD4 mAb on CEM-T4 cells; assay type: cell-based
CD4/gp120 interaction = CD4/gp120 interaction (Human immunodeficiency virus type 1 group M subtype B, UniProt P03375); details: concentrations 10,000-fold above its IC50; Callahan et al.; cited from earlier work

T1 sequence (P16070 21-361 isoform P16070-12 limits assumed): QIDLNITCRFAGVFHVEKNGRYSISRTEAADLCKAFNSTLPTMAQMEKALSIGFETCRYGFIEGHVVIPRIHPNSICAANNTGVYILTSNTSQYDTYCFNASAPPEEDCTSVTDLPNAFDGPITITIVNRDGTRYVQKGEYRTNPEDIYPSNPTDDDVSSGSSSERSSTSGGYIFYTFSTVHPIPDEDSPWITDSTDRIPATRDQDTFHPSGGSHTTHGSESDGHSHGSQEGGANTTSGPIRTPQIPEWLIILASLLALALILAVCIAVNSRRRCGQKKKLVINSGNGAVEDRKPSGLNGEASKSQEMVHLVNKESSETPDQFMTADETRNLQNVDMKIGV

With “5367 (TTGGGGTTGGGGTTGGGGTTGGGGG; phosphodiester, further chemistry not given here) [compound 5367]” the TC50 [1] was 52 µM, the IC50 [2] was > 2 µM and the EC50 (HSV-1 (KOS) [3]) was > 4 µM. For the same substance, the “TI (TC50/IC50)” value (HIV-1IIIB) was 400 and the IC50 (HIV-1IIIB; inhibition of HIV) was 0.09 µM and 0.13 µM.
For “TT GGGG TT GGGG TT GGGG TT GGGG (TTGGGGTTGGGGTTGGGGTTGGGG; chemistry not fully specified) [ISIS 5651]”, the “antiviral activity, virus yield” value (HSV-1 (KOS) [4]) was “greater antiviral activity than did Acyclovir”.
In the case of TT GGGG TT [ISIS 5320], the “effect on chronically infected cells” value [5] is reported as “had no effect”, the “effect on binding of antibodies to human CD44” value (human CD44) is reported as “Neither oligonucleotide significantly decreased binding” and the “effect on binding of antisera to gp120” value (V3 loop region of gp120) is reported as “interferes with binding of antisera directed against the V3 loop region of gp120”. The IC50 (HIV-1 [6]; Table 15, μM of oligonucleotide strand to inhibit 50% of virus-induced cell killing, error ±0.1 μM) was 0.3 µM, the IC50 (HIV-1 [6]; Table 16, acute HIV assay, listed as TsTsGsGsGsGsTsT) was 0.3 µM and the “antiviral activity after heat denaturation of the tetrameric complex” value (HIV-1 [6]; data not shown) was “loss of activity”. For the same substance, the “production of intracellular PCR-amplifiable DNA” value (HIV) was “inhibited production of intracellular PCR-amplifiable DNA”, the IC50 (HIV-1 [7]) was ~0.4 µM and the “effect on binding of antibodies to CD4” value (CD4) was “Neither oligonucleotide significantly decreased binding”.
In the case of dextran sulfate, the “effect on gp120/CD4 interaction” value (CD4/gp120 interaction) is listed as “does not prevent the gp120/CD4 interaction”.
